Experiments:
[1] = target: Casein kinase I isoform delta (Homo sapiens) (UniProt P48730); assay: Inhibition of human CK1-delta assessed as residual activity at 0.1 uM relative to control
[2] = target: Myosin light chain kinase, smooth muscle (Homo sapiens) (UniProt Q15746); assay: Inhibition of human MYLK assessed as residual activity at 1 uM relative to control
[3] = target: Casein kinase II subunit alpha (Homo sapiens) (UniProt P68400); assay: Inhibition of human CK2alpha1 assessed as residual activity at 1 uM relative to control
[4] = target: Protein kinase C alpha type (Homo sapiens) (UniProt P17252); assay: Inhibition of human PKCalpha assessed as residual activity at 0.1 uM relative to control
[5] = target: SRSF protein kinase 1 (Homo sapiens) (UniProt Q96SB4); assay: Inhibition of human SRPK1 assessed as residual activity at 1 uM relative to control
Homo sapiens = species on record: Homo sapiens; assay: Inhibition of human PKA assessed as residual activity at 0.1 uM relative to control
[6] = target: Glycogen synthase kinase-3 beta (Homo sapiens) (UniProt P49841); assay: Inhibition of human GSK3-beta assessed as residual activity at 1 uM relative to control
[7] = target: Serine/threonine-protein kinase PAK 4 (Homo sapiens) (UniProt O96013); assay: Inhibition of human PAK4 assessed as residual activity at 0.1 uM relative to control
[8] = target: Mitogen-activated protein kinase kinase kinase 11 (Homo sapiens) (UniProt Q16584); assay: Inhibition of human MAP3K11 assessed as residual activity at 0.1 uM relative to control
[9] = target: Tyrosine-protein kinase Lck (Homo sapiens) (UniProt P06239); assay: Inhibition of human LCK assessed as residual activity at 1 uM relative to control
[10] = target: Serine/threonine-protein kinase pim-1 (Homo sapiens) (UniProt P11309); assay: Inhibition of human PIM1 assessed as residual activity at 0.1 uM relative to control
[11] = target: Aurora kinase B (Homo sapiens) (UniProt Q96GD4); assay: Inhibition of human Aurora-B assessed as residual activity at 1 uM relative to control
[12] = target: High affinity nerve growth factor receptor (Homo sapiens, UniProt P04629); assay: Inhibition of human TRKA assessed as residual activity at 0.1 uM relative to control
[13] = target: Insulin-like growth factor 1 receptor (Homo sapiens) (UniProt P08069); assay: Inhibition of human IGF1R assessed as residual activity at 1 uM relative to control
[14] = target: Calcium/calmodulin-dependent protein kinase kinase 2 (Homo sapiens) (UniProt Q96RR4); assay: Inhibition of human CAMKK2 assessed as residual activity at 0.1 uM relative to control
[15] = target: Rho-associated protein kinase 2 (Homo sapiens) (UniProt O75116); assay: Inhibition of human ROCK2 assessed as residual activity at 0.1 uM relative to control
[16] = target: Mitogen-activated protein kinase 14 (Homo sapiens) (UniProt Q16539); assay: Inhibition of human p38-alpha assessed as residual activity at 0.1 uM relative to control
[17] = target: T1, Dual specificity protein kinase TTK (Homo sapiens) (UniProt P33981); assay: Inhibition of human TTK assessed as residual activity at 1 uM relative to control
T1 sequence (whole entry): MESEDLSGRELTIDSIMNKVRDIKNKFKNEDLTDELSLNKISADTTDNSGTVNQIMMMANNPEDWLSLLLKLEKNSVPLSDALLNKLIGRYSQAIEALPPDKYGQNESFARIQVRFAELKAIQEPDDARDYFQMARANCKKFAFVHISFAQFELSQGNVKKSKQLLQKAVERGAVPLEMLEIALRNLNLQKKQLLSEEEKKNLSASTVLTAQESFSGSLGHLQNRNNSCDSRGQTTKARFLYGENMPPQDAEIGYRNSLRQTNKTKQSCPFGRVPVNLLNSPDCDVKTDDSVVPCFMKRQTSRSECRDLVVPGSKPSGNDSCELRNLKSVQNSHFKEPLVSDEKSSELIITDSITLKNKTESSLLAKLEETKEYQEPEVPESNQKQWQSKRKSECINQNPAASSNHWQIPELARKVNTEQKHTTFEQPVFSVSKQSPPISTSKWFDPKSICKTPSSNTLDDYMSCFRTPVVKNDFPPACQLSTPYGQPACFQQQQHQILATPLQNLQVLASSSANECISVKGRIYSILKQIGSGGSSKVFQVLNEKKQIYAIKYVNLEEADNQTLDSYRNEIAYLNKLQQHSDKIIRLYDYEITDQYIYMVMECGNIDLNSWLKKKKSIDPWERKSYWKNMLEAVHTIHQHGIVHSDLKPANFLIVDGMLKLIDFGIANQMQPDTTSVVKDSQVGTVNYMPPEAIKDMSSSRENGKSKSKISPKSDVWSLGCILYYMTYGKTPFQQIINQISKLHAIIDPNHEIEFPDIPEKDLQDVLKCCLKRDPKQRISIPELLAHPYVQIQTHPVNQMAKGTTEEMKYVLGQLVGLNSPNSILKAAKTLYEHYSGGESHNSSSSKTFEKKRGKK

[18] = target: T2, Eukaryotic elongation factor 2 kinase (Homo sapiens) (UniProt O00418); assay: Inhibition of human EEF2K assessed as residual activity at 0.1 uM relative to control
T2 sequence (whole entry): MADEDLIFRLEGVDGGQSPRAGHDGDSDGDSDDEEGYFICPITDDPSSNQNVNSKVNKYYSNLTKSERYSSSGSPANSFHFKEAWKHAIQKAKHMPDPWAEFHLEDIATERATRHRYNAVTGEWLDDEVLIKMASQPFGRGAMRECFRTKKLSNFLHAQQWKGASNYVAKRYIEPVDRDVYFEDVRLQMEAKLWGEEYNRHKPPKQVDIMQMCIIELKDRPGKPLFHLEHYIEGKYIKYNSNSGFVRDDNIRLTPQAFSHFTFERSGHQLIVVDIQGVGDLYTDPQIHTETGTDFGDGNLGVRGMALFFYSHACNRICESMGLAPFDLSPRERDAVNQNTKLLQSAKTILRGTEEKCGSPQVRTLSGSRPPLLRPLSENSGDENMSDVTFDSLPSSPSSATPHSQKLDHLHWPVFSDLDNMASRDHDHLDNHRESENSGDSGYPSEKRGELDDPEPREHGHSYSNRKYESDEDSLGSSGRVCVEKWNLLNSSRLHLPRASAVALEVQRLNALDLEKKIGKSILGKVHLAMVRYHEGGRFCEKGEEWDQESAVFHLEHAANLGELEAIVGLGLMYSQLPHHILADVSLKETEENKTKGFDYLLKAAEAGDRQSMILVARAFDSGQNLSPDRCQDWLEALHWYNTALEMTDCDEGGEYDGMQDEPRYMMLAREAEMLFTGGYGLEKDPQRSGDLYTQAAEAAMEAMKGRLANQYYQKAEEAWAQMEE

[19] = target: SRSF protein kinase 1 (Homo sapiens) (UniProt Q96SB4); assay: Inhibition of human SRPK1 assessed as residual activity at 0.1 uM relative to control

Mitogen-activated protein kinase 14 (Homo sapiens), sequence (Q16539 whole entry): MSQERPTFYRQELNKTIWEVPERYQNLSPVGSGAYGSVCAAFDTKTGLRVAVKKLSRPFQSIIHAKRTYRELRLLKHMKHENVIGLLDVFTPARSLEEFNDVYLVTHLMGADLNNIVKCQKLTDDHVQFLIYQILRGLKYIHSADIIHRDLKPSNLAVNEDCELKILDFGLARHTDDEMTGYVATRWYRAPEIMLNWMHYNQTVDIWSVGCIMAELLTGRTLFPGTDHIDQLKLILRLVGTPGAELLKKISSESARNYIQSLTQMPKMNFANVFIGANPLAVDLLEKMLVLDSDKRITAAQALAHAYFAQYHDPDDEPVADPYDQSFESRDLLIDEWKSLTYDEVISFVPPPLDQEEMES
Insulin-like growth factor 1 receptor (Homo sapiens), sequence (P08069 31-736 limits assumed): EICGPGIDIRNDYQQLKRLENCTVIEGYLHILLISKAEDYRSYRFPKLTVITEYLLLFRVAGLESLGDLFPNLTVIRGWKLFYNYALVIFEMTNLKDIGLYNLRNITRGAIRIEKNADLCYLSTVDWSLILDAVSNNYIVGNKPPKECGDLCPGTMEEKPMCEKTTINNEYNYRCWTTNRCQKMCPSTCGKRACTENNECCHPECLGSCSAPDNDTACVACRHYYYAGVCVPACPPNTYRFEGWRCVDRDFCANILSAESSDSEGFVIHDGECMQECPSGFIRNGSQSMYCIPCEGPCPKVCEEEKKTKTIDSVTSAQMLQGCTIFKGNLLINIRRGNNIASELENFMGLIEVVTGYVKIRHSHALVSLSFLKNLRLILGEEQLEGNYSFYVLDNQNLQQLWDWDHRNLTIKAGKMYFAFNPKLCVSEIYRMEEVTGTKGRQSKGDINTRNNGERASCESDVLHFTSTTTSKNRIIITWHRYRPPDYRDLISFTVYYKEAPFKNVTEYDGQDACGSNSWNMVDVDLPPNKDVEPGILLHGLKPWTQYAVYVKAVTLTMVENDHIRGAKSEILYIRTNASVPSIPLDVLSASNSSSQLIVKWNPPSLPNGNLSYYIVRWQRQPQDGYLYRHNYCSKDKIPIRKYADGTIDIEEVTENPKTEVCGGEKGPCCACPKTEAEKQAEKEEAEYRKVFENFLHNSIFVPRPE
Insulin-like growth factor 1 receptor (Homo sapiens), sequence (P08069 741-1367 limits assumed): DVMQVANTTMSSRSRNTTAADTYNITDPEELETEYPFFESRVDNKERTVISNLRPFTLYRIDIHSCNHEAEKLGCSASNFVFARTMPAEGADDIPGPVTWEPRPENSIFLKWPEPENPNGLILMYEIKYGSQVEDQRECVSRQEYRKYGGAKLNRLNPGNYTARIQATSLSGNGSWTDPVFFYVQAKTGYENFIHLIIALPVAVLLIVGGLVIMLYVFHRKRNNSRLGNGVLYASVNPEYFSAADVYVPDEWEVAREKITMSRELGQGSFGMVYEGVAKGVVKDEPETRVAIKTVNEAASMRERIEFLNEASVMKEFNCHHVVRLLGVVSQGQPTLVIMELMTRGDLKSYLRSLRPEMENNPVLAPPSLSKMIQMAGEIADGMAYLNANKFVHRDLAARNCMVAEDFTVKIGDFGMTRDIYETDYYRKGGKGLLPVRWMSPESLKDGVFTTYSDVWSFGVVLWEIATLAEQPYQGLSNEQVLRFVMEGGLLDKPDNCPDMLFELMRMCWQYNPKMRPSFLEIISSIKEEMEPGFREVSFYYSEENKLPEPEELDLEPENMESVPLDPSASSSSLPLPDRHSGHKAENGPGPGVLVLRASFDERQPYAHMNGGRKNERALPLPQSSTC
Mitogen-activated protein kinase kinase kinase 11 (Homo sapiens), sequence (Q16584 whole entry, looked up): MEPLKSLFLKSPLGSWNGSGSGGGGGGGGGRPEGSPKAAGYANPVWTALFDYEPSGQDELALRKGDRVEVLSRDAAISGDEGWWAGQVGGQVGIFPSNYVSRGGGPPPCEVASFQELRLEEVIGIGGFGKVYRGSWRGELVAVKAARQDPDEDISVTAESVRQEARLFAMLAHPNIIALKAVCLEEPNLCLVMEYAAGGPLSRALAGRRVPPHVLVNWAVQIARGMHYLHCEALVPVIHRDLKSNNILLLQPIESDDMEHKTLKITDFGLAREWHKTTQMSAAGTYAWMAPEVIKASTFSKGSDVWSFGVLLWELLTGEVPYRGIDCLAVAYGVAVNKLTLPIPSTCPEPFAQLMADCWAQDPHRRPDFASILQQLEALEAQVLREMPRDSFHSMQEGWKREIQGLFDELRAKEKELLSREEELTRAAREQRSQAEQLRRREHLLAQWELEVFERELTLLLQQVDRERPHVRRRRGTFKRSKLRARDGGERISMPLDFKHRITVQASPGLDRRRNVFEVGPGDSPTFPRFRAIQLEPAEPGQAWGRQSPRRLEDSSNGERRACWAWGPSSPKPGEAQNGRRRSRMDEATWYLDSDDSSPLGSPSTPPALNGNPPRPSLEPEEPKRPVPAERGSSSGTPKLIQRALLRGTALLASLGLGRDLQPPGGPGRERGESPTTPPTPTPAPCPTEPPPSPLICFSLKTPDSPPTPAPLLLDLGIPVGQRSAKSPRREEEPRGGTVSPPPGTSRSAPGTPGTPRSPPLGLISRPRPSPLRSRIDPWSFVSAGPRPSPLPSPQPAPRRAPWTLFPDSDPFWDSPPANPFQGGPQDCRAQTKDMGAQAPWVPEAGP
SRSF protein kinase 1 (Homo sapiens), sequence (Q96SB4 whole entry): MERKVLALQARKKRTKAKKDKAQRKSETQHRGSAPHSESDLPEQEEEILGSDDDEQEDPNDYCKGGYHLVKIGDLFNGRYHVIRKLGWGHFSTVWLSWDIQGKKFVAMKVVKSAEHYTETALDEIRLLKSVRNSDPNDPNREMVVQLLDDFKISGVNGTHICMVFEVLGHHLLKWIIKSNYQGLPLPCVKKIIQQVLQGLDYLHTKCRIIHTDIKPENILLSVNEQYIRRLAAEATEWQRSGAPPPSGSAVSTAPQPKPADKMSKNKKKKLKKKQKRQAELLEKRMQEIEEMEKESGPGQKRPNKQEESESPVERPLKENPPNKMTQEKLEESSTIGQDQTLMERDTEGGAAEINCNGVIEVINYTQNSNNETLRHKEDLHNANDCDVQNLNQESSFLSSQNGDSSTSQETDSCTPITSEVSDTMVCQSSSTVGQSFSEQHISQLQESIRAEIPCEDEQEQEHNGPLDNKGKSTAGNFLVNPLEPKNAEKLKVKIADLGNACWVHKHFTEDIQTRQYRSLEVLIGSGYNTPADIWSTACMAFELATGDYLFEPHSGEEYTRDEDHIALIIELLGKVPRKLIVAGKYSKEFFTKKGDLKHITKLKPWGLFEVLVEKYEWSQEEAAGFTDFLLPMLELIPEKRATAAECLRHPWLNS
High affinity nerve growth factor receptor, sequence (P04629 33-796 limits assumed): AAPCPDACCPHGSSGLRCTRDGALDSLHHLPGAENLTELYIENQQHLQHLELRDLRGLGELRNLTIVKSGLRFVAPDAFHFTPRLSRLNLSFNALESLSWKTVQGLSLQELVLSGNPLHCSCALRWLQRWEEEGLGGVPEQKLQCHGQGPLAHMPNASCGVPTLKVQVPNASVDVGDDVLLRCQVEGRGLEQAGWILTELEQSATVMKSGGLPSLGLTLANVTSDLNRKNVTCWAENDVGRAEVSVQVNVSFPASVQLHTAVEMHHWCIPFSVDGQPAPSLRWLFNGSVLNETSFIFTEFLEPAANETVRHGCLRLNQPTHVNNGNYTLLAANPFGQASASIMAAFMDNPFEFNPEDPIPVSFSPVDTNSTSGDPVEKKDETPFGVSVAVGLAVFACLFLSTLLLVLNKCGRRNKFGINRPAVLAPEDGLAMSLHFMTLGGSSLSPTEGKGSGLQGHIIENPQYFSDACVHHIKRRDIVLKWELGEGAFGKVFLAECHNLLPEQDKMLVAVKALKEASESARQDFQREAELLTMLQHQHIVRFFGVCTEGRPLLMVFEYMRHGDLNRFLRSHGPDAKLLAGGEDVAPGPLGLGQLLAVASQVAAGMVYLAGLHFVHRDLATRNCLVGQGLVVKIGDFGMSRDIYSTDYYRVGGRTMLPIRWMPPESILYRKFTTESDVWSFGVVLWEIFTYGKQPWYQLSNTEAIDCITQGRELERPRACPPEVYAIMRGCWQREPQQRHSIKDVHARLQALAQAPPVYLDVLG
Calcium/calmodulin-dependent protein kinase kinase 2 (Homo sapiens), sequence (Q96RR4 2-588 limits assumed): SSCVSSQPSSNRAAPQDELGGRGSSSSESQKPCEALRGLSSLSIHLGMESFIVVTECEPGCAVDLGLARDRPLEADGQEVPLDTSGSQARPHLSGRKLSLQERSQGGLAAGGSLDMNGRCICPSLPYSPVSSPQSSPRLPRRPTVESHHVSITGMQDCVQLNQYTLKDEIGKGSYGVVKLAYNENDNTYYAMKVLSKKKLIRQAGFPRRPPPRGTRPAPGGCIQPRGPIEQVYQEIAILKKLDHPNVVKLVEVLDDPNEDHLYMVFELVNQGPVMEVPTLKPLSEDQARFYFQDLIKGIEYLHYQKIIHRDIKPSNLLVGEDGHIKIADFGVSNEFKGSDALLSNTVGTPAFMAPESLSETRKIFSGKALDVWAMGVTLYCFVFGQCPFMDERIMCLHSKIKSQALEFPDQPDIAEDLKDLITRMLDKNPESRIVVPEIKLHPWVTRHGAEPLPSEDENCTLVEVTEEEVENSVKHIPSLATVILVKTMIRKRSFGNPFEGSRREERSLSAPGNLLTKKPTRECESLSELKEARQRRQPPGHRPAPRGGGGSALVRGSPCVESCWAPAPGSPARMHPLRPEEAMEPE
Casein kinase I isoform delta (Homo sapiens), sequence (P48730 whole entry, looked up, canonical isoform): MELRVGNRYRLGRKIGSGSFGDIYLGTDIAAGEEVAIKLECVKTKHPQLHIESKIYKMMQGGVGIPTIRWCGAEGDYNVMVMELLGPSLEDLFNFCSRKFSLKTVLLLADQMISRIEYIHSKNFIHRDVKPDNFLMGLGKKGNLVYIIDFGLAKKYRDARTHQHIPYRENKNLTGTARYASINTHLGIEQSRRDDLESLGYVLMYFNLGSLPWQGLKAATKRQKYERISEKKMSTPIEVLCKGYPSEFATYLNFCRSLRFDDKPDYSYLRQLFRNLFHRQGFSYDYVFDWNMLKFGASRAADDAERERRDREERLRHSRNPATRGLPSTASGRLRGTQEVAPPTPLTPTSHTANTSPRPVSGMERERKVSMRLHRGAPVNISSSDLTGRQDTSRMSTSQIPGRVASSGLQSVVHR

| SMILES | Activity [1] | Activity [2] | Activity [3] | Activity [4] | Activity [5] | Activity (Homo sapiens) | Activity [6] | Activity [7] | Activity [8] | Activity [9] | Activity [10] | Activity [11] | Activity [12] | Activity [13] | Activity [14] | Activity [15] | Activity [16] | Activity [17] | Activity [18] | Activity [19] |
| --- | --- | --- | --- | --- | --- | --- | --- | --- | --- | --- | --- | --- | --- | --- | --- | --- | --- | --- | --- | --- |
| COc1ccc2c(c1)c(/C=C1\C(=O)Nc3ccc(S(N)(=O)=O)cc31)cn2C | 87% | 90% | 94% | 91% | 99% | 91% | 83% | 77% | 34% | 32% | 96% | 50% | 3% | 100% | 53% | 99% | 106% | 96% | 101% | 106% |
| COc1ccc2[nH]cc(/C=C3\C(=O)Nc4ccc(S(N)(=O)=O)cc43)c2c1 | 92% | 83% | 84% | 104% | 93% | 88% | 79% | 93% | 66% | 61% | 103% | 48% | 6% | 97% | 83% | 101% | 102% | 80% | 107% | 114% |
| CN(C)S(=O)(=O)c1ccc2c(c1)/C(=C/c1cn(C)c3ccc(O)cc13)C(=O)N2 | 88% | 84% | 89% | 96% | 94% | 94% | 92% | 95% | 80% | 33% | 102% | 11% | 10% | 95% | 73% | 79% | 97% | 96% | 97% | 109% |
